Earlier results as cited in PMC11982978, “Cancer hotspot mutations rewire ERK2 specificity by selective exclusion of docking interactions” (The Journal of Biological Chemistry, 2025).

test system: WT ERK2; details: selective conditions (-His); hits Z > 3; average of three screens; cited from earlier work
Text: Supplement mmc2.xlsx, sheet "WT Hits" | column: Z-score

Sequence	Z-score (ES) of hit sequences, WT ERK2 Y2H screen
AAGRRAAPYLVLTA [TFR2, D-site 14-mer in ELK1 Y2H prey]	3.19
QGKTKRPVDLKIKN [TAGAP, D-site 14-mer in ELK1 Y2H prey]	3.38
PKRKEPGRSLRIKV [DNAJC27, D-site 14-mer in ELK1 Y2H prey]	6.00
GRPLRLPPPLRLLR [GNAS, D-site 14-mer in ELK1 Y2H prey]	3.08
RRQHRPPALLTLYP [DOCK6, D-site 14-mer in ELK1 Y2H prey]	3.71
KLDKSPFVVVSVVG [TTC28, D-site 14-mer in ELK1 Y2H prey]	3.83
RKKDRPRKHLTLNN [SP100, D-site 14-mer in ELK1 Y2H prey]	3.83
NKSLKNQHGLTLQL [ZNF534, D-site 14-mer in ELK1 Y2H prey]	12.39
LKQRTRPLLINLSK [MCTP2, D-site 14-mer in ELK1 Y2H prey]	3.77
PDRKAKPTPLDLRN [GAB2, D-site 14-mer in ELK1 Y2H prey]	7.63
ARGQRSVLQVPLPV [CRNKL1, D-site 14-mer in ELK1 Y2H prey]	4.21
KTQRLDVAKVCLGN [IFT140, D-site 14-mer in ELK1 Y2H prey]	4.26
KCSRKKKPKLSLKA [L3MBTL3, D-site 14-mer in ELK1 Y2H prey]	10.66
KGVKHRPPPIKLPS [SUPT20H, D-site 14-mer in ELK1 Y2H prey]	18.07
KKRKKKRLVINLSS [TTLL6, D-site 14-mer in ELK1 Y2H prey]	10.00
NQKKPALKKLTLLP [IWS1, D-site 14-mer in ELK1 Y2H prey]	4.19
PIKQKRKLRIFISN [SMARCD1, D-site 14-mer in ELK1 Y2H prey]	4.04
MQKKIKIPKLSLNH [BEND5, D-site 14-mer in ELK1 Y2H prey]	3.94
LRPLRPKPPLLLPK [RREB1, D-site 14-mer in ELK1 Y2H prey]	9.18
KKARGKPVRLRLSS [MELK, D-site 14-mer in ELK1 Y2H prey]	7.57
QVKLRSRTSLTLPR [RGL1, D-site 14-mer in ELK1 Y2H prey]	4.63
CELPRRNCLLPFSN [NSD1, D-site 14-mer in ELK1 Y2H prey]	3.49
PWRTTKPQPLVLSQ [PROX2, D-site 14-mer in ELK1 Y2H prey]	3.19
RKEVKRKKVVHMNK [RNF151, D-site 14-mer in ELK1 Y2H prey]	6.59

Sequence	Z-score (ES) of hit sequences, WT ERK2 Y2H screen
AKRRIANLKIQLAK [WWC1, D-site 14-mer in ELK1 Y2H prey]	3.55
KQRKLSPLRLSVSN [KMT2E, D-site 14-mer in ELK1 Y2H prey]	4.49
PMKQKRKLRLYISN [SMARCD3, D-site 14-mer in ELK1 Y2H prey]	6.57
RQKKERPHMLNLSG [SYDE2, D-site 14-mer in ELK1 Y2H prey]	5.14
PGRRQNTIVVKVPG [BANP, D-site 14-mer in ELK1 Y2H prey]	5.25
SRKQRQPARLQLPA [ZBTB45, D-site 14-mer in ELK1 Y2H prey]	3.70
IFQRQRVDALLLDL [MED6, D-site 14-mer in ELK1 Y2H prey]	7.05
KKTRKLKIALALSD [PLCZ1, D-site 14-mer in ELK1 Y2H prey]	3.78
RLQSRKPPNLSITI [RHBDF2, D-site 14-mer in ELK1 Y2H prey]	20.42
IKMKPKPRILSIKS [MAP9, D-site 14-mer in ELK1 Y2H prey]	3.08
SLKKKIQPKLSLTL [JAZF1, D-site 14-mer in ELK1 Y2H prey]	5.24
SPKWKNFKGLKLQW [MLXIP, D-site 14-mer in ELK1 Y2H prey]	8.72
KKSRVPPPPILLSR [CFAP54, D-site 14-mer in ELK1 Y2H prey]	11.93
KSRQKNPRSLCIQP [MTUS1, D-site 14-mer in ELK1 Y2H prey]	4.97
ITSKQRPRKLTLMG [MTOR, D-site 14-mer in ELK1 Y2H prey]	4.58
VVALRKKQQLAIGP [AGAP3, D-site 14-mer in ELK1 Y2H prey]	6.33
KPLKKKPTPVLLPQ [SEC63, D-site 14-mer in ELK1 Y2H prey]	3.34
GLTARRLLPLRLPP [MLYCD, D-site 14-mer in ELK1 Y2H prey]	14.29
KKGVKPKLVLNVTS [CMYA5, D-site 14-mer in ELK1 Y2H prey]	4.91
KRWLRKPRPVSLFS [GTF3C1, D-site 14-mer in ELK1 Y2H prey]	5.35
PTKTKPKKLLFLGS [SMG1, D-site 14-mer in ELK1 Y2H prey]	3.46
LKQRRRAQKLHFLQ [DDX54, D-site 14-mer in ELK1 Y2H prey]	3.41
ITKAIRDRLLFLRQ [NBAS, D-site 14-mer in ELK1 Y2H prey]	3.64
NGRREKRKQLTLPS [TBX2, D-site 14-mer in ELK1 Y2H prey]	10.21

Sequence	Z-score (ES) of hit sequences, WT ERK2 Y2H screen
KTKRNKILKLKFPR [ATP8B1, D-site 14-mer in ELK1 Y2H prey]	3.62
KRSKKNSLALSLTA [ESR1, D-site 14-mer in ELK1 Y2H prey]	5.11
RKPRSPPRALVLPH [PEG10, D-site 14-mer in ELK1 Y2H prey]	3.94
RKARRLEPGLLLPG [SOX18, D-site 14-mer in ELK1 Y2H prey]	7.78
PDGKKRRKVLALPS [RBM28, D-site 14-mer in ELK1 Y2H prey]	5.03
SGMRARRGLLRLPR [B4GALT5, D-site 14-mer in ELK1 Y2H prey]	5.95
QLPPRKLPTLKLTP [MTX3, D-site 14-mer in ELK1 Y2H prey]	3.25
RSVRKRSPWLQLPG [FCRLB, D-site 14-mer in ELK1 Y2H prey]	3.88
HFRHKSQLRLHLRQ [BCL6, D-site 14-mer in ELK1 Y2H prey]	5.64
QVPKKAWRKLKLPG [DCAF11, D-site 14-mer in ELK1 Y2H prey]	5.07
TKMQKKVLSLRLPC [RIN2, D-site 14-mer in ELK1 Y2H prey]	7.27
SLARAKRPSVSFAE [SCARF1, D-site 14-mer in ELK1 Y2H prey]	5.09
EKVKRKKNVLRLCC [PRAME, D-site 14-mer in ELK1 Y2H prey]	4.69
RKTKKKKSHLSLVG [ATXN7L3, D-site 14-mer in ELK1 Y2H prey]	3.39
RPRCRRQPRLRLPT [EPM2A, D-site 14-mer in ELK1 Y2H prey]	13.05
PPVKKKPKLLNLKD [SIN3A, D-site 14-mer in ELK1 Y2H prey]	4.29
PFGSRRSSAIGIEN [RAP1GAP, D-site 14-mer in ELK1 Y2H prey]	5.61
EERKTKRPSLRLFG [PPARGC1A, D-site 14-mer in ELK1 Y2H prey]	4.99
PKDKKRPTPLEIGY [PCLO, D-site 14-mer in ELK1 Y2H prey]	4.93
PGKRGRPRKLKLCK [MGA, D-site 14-mer in ELK1 Y2H prey]	8.03
FTLKAKRPGLRLPD [FLRT1, D-site 14-mer in ELK1 Y2H prey]	4.42
YKMKFFTKCVAFSK [LRP2BP, D-site 14-mer in ELK1 Y2H prey]	3.15
ALLRKINQVLLFLL [GLT8D2, D-site 14-mer in ELK1 Y2H prey]	5.93
RKKKLTMRPLVLQK [MAP3K19, D-site 14-mer in ELK1 Y2H prey]	3.59
